# Test results taken from publication PMC6337631, “Effective Tetradentate Compound Complexes against Leishmania spp. that Act on Critical Enzymatic Pathways of These Parasites” (Molecules, 2018).
# Key:
# [1] = test system: Leishmania braziliensis amastigote forms; assay: Amastigote test (intracellular forms in J774.2 macrophages), L. braziliensis; assay type: cell-based; conditions: Leishmania braziliensis, 72 h, mean ± SD
# Experimental: (§1) Promastigote forms of three different Leishmania spp., L. donovani (MHOM/PE/84/LC26), L. infantum (MCAN/ES/2001/UCM-10) and L. braziliensis (MHOM/BR/1975/M2904), were cultured in vitro in Medium Trypanosomes Liquid (MTL) supplemented with 10% inactivated foetal calf serum (FCS) in an air atmosphere at 28 °C, in Roux flasks (Corning, Manassas, VA, USA) with a surface area of 75 cm^2, according to [33].
# (§2) The compounds and the reference drug Glu were dissolved in DMSO (Panreac, Barcelona, Spain) and tested from 100 µM to 1 µM with 0.1% (v/v) DMSO final concentration in plates. Therefore, controls were prepared including 0.1% (v/v) of this component, as previously described.
# (§3) J774.2 macrophages were grown and seeded at a density of 1 × 10^4 cells/well in 24-well microplates (Nunc) with rounded coverslips on the bottom and cultured for 48 h in humidified 95% air, 5% CO2 atmosphere at 37 °C in Minimal Essential Medium (MEM) with 2 mM glutamine and 20% (v/v) inactivated FCS. Adherent macrophages were infected with metacyclic promastigotes in the stationary growth phase of L. donovani, L. infantum and L. braziliensis at a multiplicity of infection (MOI) ratio of 1:10 and maintained for 24 h. Non-phagocytosed parasites were removed by washing, and after addition of the testing compounds at concentrations from 100 µM to 1 µM, cultured in 500 μL/well volumes. Control cultures were also included. After 72 h incubation, leishmanicidal activity was assessed based on the number of amastigotes in treated and untreated cultures in methanol-fixed and Giemsa-stained preparations by analyzing 500 host cells distributed in randomly chosen microscopic fields. The leishmanicidal effect was calculated as described to determine the leishmanicidal activity in the promastigote forms. Each drug concentration was tested in triplicate in four separate determinations.
# [2] = test system: Leishmania donovani promastigote forms; assay: Promastigote test (extracellular forms), L. donovani; assay type: cell-based; conditions: Leishmania donovani; 72 h; 100 µM to 1 µM; mean ± SD
# Experimental: as §1, §2
# Promastigote forms were collected in the exponential growth phase and seeded at 1 × 10^5 parasites/mL in 24-well microplates (Nunc, Naperville, IL, USA), after adding each compound at concentrations from 100 µM to 1 µM and cultured in 500 μL/well volumes at 28 °C. After 72 h incubation, the leishmanicidal activity was assessed using a Neubauer haemocytometric chamber in comparison with the control cultures. […] Each drug concentration was tested in triplicate in four separate determinations.
# [3] = test system: Leishmania donovani amastigote forms; assay: Amastigote test (intracellular forms in J774.2 macrophages), L. donovani; assay type: cell-based; conditions: Leishmania donovani, 72 h, mean ± SD
# Experimental: as §1, §2, §3
# [4] = test system: J774.2 murine macrophages; assay: Cytotoxicity test on macrophages by flow cytometry; assay type: cell-based, mouse; conditions: Mus musculus, J774.2 macrophages, 72 h, read-out: Toxicity IC50 Macrophage
# Experimental: as §2
# The macrophage line J774.2 [European collection of cell cultures (ECACC) number 91051511] was derived in 1968 from a tumour in a female BALB/c mouse. Macrophages were grown in humidified 95% air, 5% CO2 atmosphere at 37 °C in Minimal Essential Medium (MEM) with 2 mM glutamine and 20% (v/v) inactivated FCS. The cytotoxicity test on macrophages was performed by Flow cytometry analysis according to a method previously described. Briefly, cells were seeded at a density of 5 × 10^4 cells/well in 24-well microplates (Nunc, Naperville, IL, USA). After 48 h incubation, the medium was removed, and fresh medium was added together with each test compound at concentrations from 100 µM to 1 µM and cultured in 500 μL/well volumes for 72 h. Thereafter, cells were recovered by centrifugation, and cell viability was determined by Flow cytometry (FACS Vantage flow cytometer, Becton Dickinson, San Jose, CA, USA) after incubating the cells with propidium iodide ([…]) and fluorescein diacetate (100 ng/mL). The percentage of viability was calculated in comparison with the control cultures. […] Each drug concentration was tested in triplicate in four separate determinations.
# [5] = test system: Leishmania donovani infection of J774.2 macrophages; assay: Infectivity assay, L. donovani; assay type: cell-based; conditions: IC25 concentration
# Experimental: After the initial in vitro studies we were interested in finding out if the six most leishmanicidal compounds could also prevent the infection of host cells. For this reason, we conducted an assay in which the J774.2 macrophages were exposed to the metacyclic promastigotes and the compound at IC25 concentration at the same time. The propagation of the parasitic infection was determined by measuring the infection rate and the average number of amastigotes per macrophage cell present during the 10-day treatment period. In addition, the endocytic (short-time of infection) and infection (long-time of infection) indexes were calculated.
# Adherent macrophages were grown, seeded and infected with metacyclic promastigotes as mentioned above. The compounds at IC25 concentrations (calculated using linear regression analysis from the Kc values of the concentrations employed) were added immediately after infection and incubation was performed for 12 h at 37 °C in humidified 95% air, 5% CO2 atmosphere. in humidified 95% air, 5% CO2 atmosphere at 37 °C Non-phagocytosed parasites and drugs were removed by washing, and then the infected cultures were grown for 10 days, adding fresh culture medium every 48 h, according to [35]. Amastigotes per macrophage count was determined in methanol-fixed and Giemsa-stained preparations as mentioned above every 48 h. The infection rate (defined as the percentage of infected cells), the average number of amastigotes per macrophage, and the endocytic and infection indexes (calculated by multiplying the infection rate by the average number of amastigotes per macrophage) were determined. Each drug concentration was tested in triplicate in four separate determinations.
# [6] = test system: L. donovani promastigotes; assay: Ultrastructural alterations by TEM, L. donovani; assay type: cell-based, Leishmania donovani; conditions: 72 h at IC25 concentration
# Experimental: (§4) Parasites were cultured at a density of 5 × 10^5 cells/mL with medium containing the tested compounds at IC25 concentrations. After 72 h at 28 °C, the cultures were processed using a technique previously described and analysed by TEM (LIBRA 120 PLUS, Zeiss, Barcelona, Spain).
# [7] = test system: L. infantum promastigotes; assay: Ultrastructural alterations by TEM, L. infantum; assay type: cell-based, Leishmania infantum; conditions: 72 h at IC25 concentration
# Experimental: as §4
# [8] = last day of the experiment (day 10)
smiles,measurement,setting,value
CN(C)c1ccnc(CN2CCC[C@H]2[C@@H]2CCCN2Cc2cc(N(C)C)ccn2)c1 [Compound 7],IC50,[1],8.5 ± 0.3 µM
same,IC50,[2],8.1 ± 3.9 µM
same,IC50,[3],1.1 ± 0.2 µM
same,IC50,[4],172 ± 11.3 µM
same,"day at which the decline in the infection rate appeared, L. donovani",[5]; 10-day infectivity assay,2 days
same,"percentage of decrease in infection rate in comparison to the control, L. donovani",[5]; [8],88%
same,"percentage of decrease in number of amastigotes per macrophage cell in comparison to the control, L. donovani",[5]; [8],74%
same,ultrastructural alterations of L. donovani promastigotes (TEM),[6],"cytoplasmic emptiness, none or a few ribosomes, swollen and disintegrated mitochondria and abundant lipid and non-lipid vacuoles"
same,ultrastructural alterations of L. infantum promastigotes (TEM),[7],most destructive compounds
